Measured values as given in patent publication US7524851B2 (Robert Bosch Gesellschaft fur Medizinische Forschung (RBMF), priority 2003, dated 2009).

Assays:
[1] = tested on: bcl-xL; experiment: bcl-xL protein expression (Western blot, intracellular FACS); format: cell-based, human; details: activated T cells
Method: FACS analysis: Analysis of peripheral blood T cells and lamina propria T lymphocytes by FACS (FACSscan; Becton Dickinson; Berlin, Germany) was performed using FITC-labeled murine antibodies to human CD4 (PharMingen), anti-mouse IgG1 isotype control antibodies (PharMingen), antibodies to bcl-xL and p mitogen-activated protein kinase kinase (pMEK) (Santa Cruz Biotech; Santa Cruz, Calif., USA), and goat anti-mouse Fab-FITC (DAKO). For intracellular staining analysis, T cells were fixed in PBS/4% paraformaldehyde (Merck; Munich, Germany) for 10 minutes at 4° C., washed twice in PBS, permeabilized in PBS/0.1% Triton X-100 (Sigma-Aldrich; Steinheim, Germany), and treated with mouse anti-human bcl-xL or MEK antibodies (2 μg per 5×10^5 cells) for 30 minutes on ice. T cells were washed twice in PBS/0.1% Triton X-100 before incubation with goat anti-mouse Fab-FITC (2 μl per 10^5 cells). Finally, T cells were washed twice in PBS before FACS analysis.
The cells were then washed in PBS, resuspended in 1 ml of T40E10N150 buffer (40 mM Tris-HCl [pH 7.9], 10 mM EDTA [pH 8.0], 150 mM NaCl), put on ice for 5 minutes, and centrifuged for 4 minutes at 4° C. at 1,000 rpm. […] The protein concentrations in supernatants were determined with the Bio-Rad Protein Assay (Bio-Rad; Munich, Germany). […]

[2] = tested on: primary CD4+ T lymphocytes; experiment: T cell vitality and clonal expansion (trypan blue); format: cell-based, human
Method: Analysis of T cell vitality and clonal expansion: To induce T cell expansion, purified T lymphocytes were stimulated with coated antibodies to CD3 (0.04 μg/ml), soluble antibodies to CD28 (1 μg/ml), and recombinant IL-2 (40 U/ml) for the indicated periods of time. […] Cell viability was assessed by trypan blue (Sigma-Aldrich) staining at the beginning and at the end of the cell culture. The clonal expansion of T cells during cell culture was calculated by the ratio between cell numbers at the beginning and at the end of the cell culture.

Row | Compound | bcl-xL protein expression [1] | clonal expansion of T cells ([2]; day 5) | clonal expansion of T cells ([2]; earlier time points than day 5)
1 | Sc1ncnc2nc[nH]c12 [6-MP, 6-mercaptopurine] | strongly suppressed | suppresses clonal expansion | 
2 | Cn1cnc([N+](=O)[O-])c1Sc1ncnc2nc[nH]c12 [azathioprine, Azathioprine] | strongly suppressed | reduction in the clonal expansion | no significant changes
